For 29 molecules, fold induction results are on record in patent US8759535B2, “Substituted fused imidazole derivatives, pharmaceutical compositions, and methods of use thereof” (High Point Pharmaceuticals, LLC, priority 2010, dated 2014).

The structures appear in SMILES notation. Where a name gives a salt, the structure may show the parent alone.

In one assay the test system is HMOX1. The assay can be described thus: HMOX1 Protein Assay (immunostaining of HO-1 in NHLF cells, GE InCell 1000). Format: cell-based. The conditions noted are these: Homo sapiens, fold change above DMSO treated cells, 3 μM compound (asterisk), 16 h. An outline of the steps:
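NHLF cells seeded overnight in FGM-2, then exposed to compound or DMSO vehicle for 16 h, fixed, and immunostained for HO-1 with Hoechst nuclear counterstain; imaged on InCell 1000. Values are fold change over DMSO-treated cells, generally at 5 μM (0.8% DMSO), with asterisked entries at 3 μM.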
By fold induction is commonly meant the ratio of treated to control signal. As to `CNCCn1c(Nc2nc3ccc(OC(F)(F)F)cc3s2)nc2cc(C(=O)NCCOCCO)ccc21` [Example 239, 1-(2-Methylamino-ethyl)-2-(6-trifluoromethoxy-benzothiazol-2 ylamino)-1H-benzoimidazole-5-carboxylic acid[2-(2-hydroxy-ethoxy)-ethyl]-amide hydrochloride], the fold induction at 3 µM turned out to be 10.

`COC(C)(C)CNC(=O)c1ccc2c(c1)nc(Nc1nc3ccc(C(F)(F)F)cc3s1)n2C` [Example 208, 1-Methyl-2-(6-trifluoromethyl-benzothiazol-2-ylamino)-1H-benzoimidazole-5-carboxylic acid (2-methoxy-2-methyl-propyl)-amide] showed a fold induction at 3 µM of 26.5.

Still in this assay, the particulars now being: Homo sapiens, fold change above DMSO treated cells, 5 μM compound, 16 h.
Regarding `Cn1c(Nc2nc3ccc(Cl)cc3s2)nc2cc(C(=O)NCC(=O)N3CCNCC3)ccc21` [Example 425, 2-(6-Chloro-benzothiazol-2-ylamino)-1-methyl-1H-benzoimidazole-5-carboxylic acid (2-oxo-2-piperazin-1-yl-ethyl)-amide hydrochloride], the fold induction at 5 µM was determined as 20.3.

The molecule `CN1CCCCC1CNC(=O)c1ccc2c(c1)nc(Nc1nc3ccc(Cl)cc3s1)n2C` (centres unmarked) [Example 318, 2-(6-Chloro-benzothiazol-2-ylamino)-1-methyl-1H-benzoimidazole-5-carboxylic acid (1-methyl-piperidin-2-ylmethyl)-amide] returned a fold induction at 5 µM of 11.9.

The molecule `Cn1c(Nc2nc3ccc(Cl)cc3s2)nc2cc(C(=O)NCC(=O)N3CCOCC3)ccc21` [Example 421, 2-(6-Chloro-benzothiazol-2-ylamino)-1-methyl-1H-benzoimidazole-5-carboxylic acid (2-morpholin-4-yl-2-oxo-ethyl)-amide] yielded a fold induction at 5 µM of 32.2.

Consider `Cn1c(Nc2nc3ccc(Cl)cc3s2)nc2cc(C(=O)NCCCCO)ccc21` [Example 220, 2-(6-Chloro-benzothiazol-2-ylamino)-1-methyl-1H-benzoimidazole-5-carboxylic acid (4-hydroxy-butyl)-amide], for which the fold induction at 5 µM is 61.9.

On to `CN(C)CC1CCN(C(=O)CNC(=O)c2ccc3c(c2)nc(Nc2nc4ccc(Cl)cc4s2)n3C)CC1` [Example 459, 2-(6-Chloro-benzothiazol-2-ylamino)-1-methyl-1H-benzoimidazole-5-carboxylic acid [2-(4-dimethylaminomethyl-piperidin-1-yl)-2-oxo-ethyl]-amide], for which the fold induction at 5 µM came out at 42.

Molecule `COCCNC(=O)c1cc2nc(Nc3nc4ccc(OC(F)(F)F)cc4s3)n(C)c2cc1OC` [Example 67, 6-Methoxy-1-methyl-2-(6-trifluoromethoxy-benzothiazol-2-ylamino)-1H-benzoimidazole-5-carboxylic acid (2-methoxy-ethyl)-amide] returned a fold induction at 5 µM of 18.7.

The molecule `CN(C)C1CCN(C(=O)CNC(=O)c2ccc3c(c2)nc(Nc2nc4ccc(Cl)cc4s2)n3C)CC1` [Example 456, 2-(6-Chloro-benzothiazol-2-ylamino)-1-methyl-1H-benzoimidazole-5-carboxylic acid [2-(4-dimethylamino-piperidin-1-yl)-2-oxo-ethyl]-amide] yielded a fold induction at 5 µM of 67.3.

In turn, `COCCNC(=O)c1ccc2c(c1)nc(Nc1nc3ccc(S(C)(=O)=O)cc3s1)n2C` [Example 127, 2-(6-Methanesulfonyl-benzothiazol-2-ylamino)-1-methyl-1H-benzimidazole-5-carboxylic acid (2-methoxy-ethyl)-amide] showed a fold induction at 5 µM of 12.4.

Turning to `Cn1c(Nc2nc3ccc(Cl)cc3s2)nc2cc(C(=O)NCCOCCCO)ccc21` [Example 248, 2-(6-Chloro-benzothiazol-2-ylamino)-1-methyl-1H-benzoimidazole-5-carboxylic acid [2-(3-hydroxy-propoxy)-ethyl]-amide], the fold induction at 5 µM was 58.7.

Take `Cn1c(Nc2nc3ccc(OC(F)(F)F)cc3s2)nc2cc(C(=O)NCC(=O)N(CCO)CCO)ccc21` [Example 392, 1-Methyl-2-(6-trifluoromethoxy-benzothiazol-2-ylamino)-1H-benzoimidazole-5-carboxylic acid {[bis-(2-hydroxy-ethyl)-carbamoyl]-methyl}-amide]: the fold induction at 5 µM stood at 24.9.

Take `COC(=O)CNC(=O)c1ccc2c(c1)nc(Nc1nc3ccc(OC(F)(F)F)cc3s1)n2C` [Example 79, {[1-Methyl-2-(6-trifluoromethoxy-benzothiazol-2-ylamino)-1H-benzoimidazole-5-carbonyl]-amino}-acetic acid methyl ester]: the fold induction at 5 µM worked out at 17.6.

Molecule `CN(C)CC(=O)N1CC[C@@H](NC(=O)c2ccc3c(c2)nc(Nc2nc4ccc(Cl)cc4s2)n3C)C1` [Example 308, 2-(6-Chloro-benzothiazol-2-ylamino)-1-methyl-1H-benzoimidazole-5-carboxylic acid [(R)-1-(2-dimethylamino-acetyl)-pyrrolidin-3-yl]-amide] came in with a fold induction at 5 µM of 24.3.

In the case of `CNC(=O)c1ccc2c(c1)nc(Nc1nc3ccc(OC(F)(F)F)cc3s1)n2CCOC` [Example 167, 1-(2-Methoxy-ethyl)-2-(6-trifluoromethoxy-benzothiazol-2-ylamino)-1H-benzoimidazole-5-carboxylic acid methylamide], the fold induction at 5 µM worked out at 24.2.

As for `COC(=O)c1ccc2c(c1)nc(Nc1nc3cc(F)ccc3s1)n2C` [Example 111, 2-(5-Fluoro-benzothiazol-2-ylamino)-1-methyl-1H-benzoimidazole-5-carboxylic acid methyl ester], the fold induction at 5 µM was found to be 17.6.

Regarding `Cn1c(Nc2nc3ccc(OC(F)(F)F)cc3s2)nc2cc(C(=O)NCCNC(=O)OC(C)(C)C)ccc21` [Example 103, (2-{[1-Methyl-2-(6-trifluoromethoxy-benzothiazol-2-ylamino)-1H-benzoimidazole-5-carbonyl]-amino}-ethyl)-carbamic acid tert-butyl ester], the fold induction at 5 µM is 9.

With `Cn1c(Nc2nc3ccc(OC(F)(F)F)cc3s2)nc2cc(C(=O)O)cnc21` [Example 72, 3-Methyl-2-(6-trifluoromethoxy-benzothiazol-2-ylamino)-3H-imidazo[4,5-b]pyridine-6-carboxylic acid], the fold induction at 5 µM worked out at 11.9.

Regarding `CCOCCNC(=O)c1cc2nc(Nc3nc4ccc(OC(F)(F)F)cc4s3)n(C)c2cc1F` [Example 57, 6-Fluoro-1-methyl-2-(6-trifluoromethoxy-benzothiazol-2-ylamino)-1H-benzoimidazole-5-carboxylic acid (2-ethoxy-ethyl)-amide], the fold induction at 5 µM amounted to 32.

For the molecule `Cn1c(Nc2nc3ccc(Cl)cc3s2)nc2cc(C(=O)NCC(=O)N3CCSCC3)ccc21` [Example 423, 2-(6-Chloro-benzothiazol-2-ylamino)-1-methyl-1H-benzoimidazole-5-carboxylic acid (2-oxo-2-thiomorpholin-4-yl-ethyl)-amide], the fold induction at 5 µM worked out at 30.2.

`Cn1c(Nc2nc3ccc(Cl)cc3s2)nc2cc(C(=O)N[C@H]3CC[C@H](C(=O)O)CC3)ccc21` [Example 378, 4-{[2-(6-Chloro-benzothiazol-2-ylamino)-1-methyl-1H-benzoimidazole-5-carbonyl]-amino}-trans-cyclohexanecarboxylic acid] displayed a fold induction at 5 µM of 24.9.

Take `Cn1c(Nc2nc3ccc(OC(F)(F)F)cc3s2)nc2cc(C(=O)NCC(=O)N3CCC(C(F)(F)F)CC3)ccc21` [Example 449, 1-Methyl-2-(6-trifluoromethoxy-benzothiazol-2-ylamino)-1H-benzoimidazole-5-carboxylic acid [2-oxo-2-(4-trifluoromethyl-piperidin-1-yl)-ethyl]-amide]: the fold induction at 5 µM worked out at 23.

As for `CCN(CC)c1cc2c(cc1C(=O)O)nc(Nc1nc3ccc(OC(F)(F)F)cc3s1)n2C` [Example 70, 6-Diethylamino-1-methyl-2-(6-trifluoromethoxy-benzothiazol-2-ylamino)-1H-benzoimidazole-5-carboxylic acid], the fold induction at 5 µM came to 21.4.

`COCCNC(=O)c1ccc2c(c1)nc(Nc1nc3ccc(F)cc3s1)n2C` [Example 125, 2-(6-Fluoro-benzothiazol-2-ylamino)-1-methyl-1H-benzimidazole-5-carboxylic acid (2-methoxy-ethyl)-amide] came in with a fold induction at 5 µM of 25.9.

Molecule `Cn1c(Nc2nc3ccc(S(C)(=O)=O)cc3s2)nc2cc(C(=O)O)ccc21` [Example 119, 2-(6-Methanesulfonyl-benzothiazol-2-ylamino)-1-methyl-1H-benzimidazole-5-carboxylic acid] had a fold induction at 5 µM of 22.1.

Molecule `Cn1c(Nc2nc3ccc(Cl)cc3s2)nc2cc(C(=O)NCC(=O)N3CC[C@H](N)C3)ccc21` [Example 411, 2-(6-Chloro-benzothiazol-2-ylamino)-1-methyl-1H-benzoimidazole-5-carboxylic acid [2-((S)-3-amino-pyrrolidin-1-yl)-2-oxo-ethyl]-amide hydrochloride] yielded a fold induction at 5 µM of 16.

`Cn1c(Nc2nc3ccc(OC(F)(F)F)cc3s2)nc2cc(C(=O)NCC3CN(C(=O)OC(C)(C)C)CCO3)ccc21` (centres unmarked) [Example 55, 2-({[1-Methyl-2-(6-trifluoromethoxy-benzothiazol-2-ylamino)-1H-benzoimidazole-5-carbonyl]-amino}methyl)-morpholine-4-carboxylic acid tert-butyl ester] came in with a fold induction at 5 µM of 4.5.

The molecule `Cn1c(Nc2nc3ccc(OC(F)(F)F)cc3s2)nc2cc(C(=O)NCC(=O)N3CCC(O)CC3)ccc21` [Example 435, 1-Methyl-2-(6-trifluoromethoxy-benzothiazol-2-ylamino)-1H-benzoimidazole-5-carboxylic acid [2-(4-hydroxy-piperidin-1-yl)-2-oxo-ethyl]-amide] registered a fold induction at 5 µM of 30.2.

Take `Cn1c(Nc2nc3ccc(OC(F)(F)F)cc3s2)nc2cc(C(=O)NCCCCCO)ccc21` [Example 226, 1-Methyl-2-(6-trifluoromethoxy-benzothiazol-2-ylamino)-1H-benzoimidazole-5-carboxylic acid (5-hydroxy-pentyl)-amide]: the fold induction at 5 µM worked out at 23.3.
